The source of these data is US9216984B2, “3-[4-(7H-pyrrolo[2,3-D]pyrimidin-4-yl)-1H-pyrazol-1-yl]octane—or heptane-nitrile as JAK inhibitors” (Incyte Corporation, priority 2009, dated 2015).

Test [1] addresses human JAK2 (a.a. 828-1132) (Homo sapiens (Human), UniProt O60674). Description: In vitro JAK kinase assay (HTRF, phosphorylation of biotinylated peptide). The test is classed as biochemical. The settings on record: for IC50: at Km ATP (30 μM ATP for Jak2). How it is done:
(§1) The compounds of the invention were tested for inhibitory activity of JAK targets according to the following in vitro assay described in Park et al., Analytical Biochemistry 1999, 269, 94-104. The catalytic domains of human JAK1 (a.a. 837-1142), JAK2 (a.a. 828-1132) and JAK3 (a.a. 781-1124) with an N-terminal His tag were expressed using baculovirus in insect cells and purified. The catalytic activity of JAK1, JAK2 or JAK3 was assayed by measuring the phosphorylation of a biotinylated peptide. The phosphorylated peptide was detected by homogenous time resolved fluorescence (HTRF). […] The ATP concentration in the reactions was 90 μM for Jak1, 30 μM for Jak2 and 3 μM for Jak3. Reactions were carried out at room temperature for 1 hr and then stopped with 20 μL 45 mM EDTA, 300 nM SA-APC, 6 nM Eu-Py20 in assay buffer (Perkin Elmer, Boston, Mass.). Binding to the Europium labeled antibody took place for 40 minutes and HTRF signal was measured on a Fusion plate reader (Perkin Elmer, Boston, Mass.).
For orientation: TR-FRET usually uses a lanthanide donor and a delayed reading to cut background.

Test [2] has as its target human JAK1 (a.a. 837-1142) (Homo sapiens, UniProt P23458). The test is described as above. The settings on record: at Km ATP (90 μM ATP for Jak1). It is filed as biochemical. How it is done:
as §1

Molecules are shown by their SMILES. Counter-ions that a name gives are not always drawn.

Chain of human JAK2 (a.a. 828-1132) (O60674 828-1132): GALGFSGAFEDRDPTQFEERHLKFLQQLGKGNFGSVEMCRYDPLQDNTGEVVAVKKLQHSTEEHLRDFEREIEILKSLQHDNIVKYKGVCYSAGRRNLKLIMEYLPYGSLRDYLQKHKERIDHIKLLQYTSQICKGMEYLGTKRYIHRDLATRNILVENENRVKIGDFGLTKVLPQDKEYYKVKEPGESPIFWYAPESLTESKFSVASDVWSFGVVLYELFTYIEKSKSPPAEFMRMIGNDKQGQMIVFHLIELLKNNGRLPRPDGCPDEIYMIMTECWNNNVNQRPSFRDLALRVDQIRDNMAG

Consider `CCCCCC(CC#N)n1cc(-c2ncnc3[nH]ccc23)cn1` (single isomer, unassigned) [Example 1, first peak (free base), 3-[4-(7H-pyrrolo[2,3-d]pyrimidin-4-yl)-1H-pyrazol-1-yl]octanenitrile], for which the “JAK2 activity compared with the other form/enantiomer (in words)” value in test [1] was “not as potent as the other enantiomer”.

For the compound `CCCCC(CC#N)n1cc(-c2ncnc3[nH]ccc23)cn1` (single isomer, unassigned) [Example 2, first peak (free base), 3-[4-(7H-pyrrolo[2,3-d]pyrimidin-4-yl)-1H-pyrazol-1-yl]heptanenitrile], the IC50 in test [2] is 1.8 nM; in test [1], 1.4 nM.

Take `CCCCCC(CC#N)n1cc(-c2ncnc3[nH]ccc23)cn1.O=P(O)(O)O` (single isomer, unassigned) [Example 1, second peak (phosphate salt), 3-[4-(7H-pyrrolo[2,3-d]pyrimidin-4-yl)-1H-pyrazol-1-yl]octanenitrile phosphoric acid salt]: the “JAK2 activity compared with the other form/enantiomer (in words)” value in test [1] is reported as “similarly active”.

In the case of `CCCCC(CC#N)n1cc(-c2ncnc3[nH]ccc23)cn1` (single isomer, unassigned) [Example 2, second peak (free base), 3-[4-(7H-pyrrolo[2,3-d]pyrimidin-4-yl)-1H-pyrazol-1-yl]heptanenitrile], the IC50 in test [2] amounted to 0.57 nM; in test [1], 0.3 nM.

Consider `CCCCC(CC#N)n1cc(-c2ncnc3[nH]ccc23)cn1` (single isomer, unassigned) [Example 2, second peak (phosphate salt), 3-[4-(7H-pyrrolo[2,3-d]pyrimidin-4-yl)-1H-pyrazol-1-yl]heptanenitrile phosphoric acid salt], for which the IC50 in test [2] was found to be 2 nM; in test [1], 0.65 nM.

The IC50 is the concentration that gives 50% inhibition. Read a high IC50 as weaker potency.
